Source: US10238713B2, “Cyclic tetrapeptides and therapeutic applications thereof” (LODZ UNIVERSITY OF TECHNOLOGY, priority 2010, dated 2019)
Non-standard residues stand in square brackets, D forms with d. Residues, ends and D or L forms follow the SMILES beside them. β3hF = N[C@H](CC(=O)O)Cc1ccccc1

Experiments:
[1] = tested on: BALB/c mice, immune response to TDI; assay: Toluene diisocyanate (TDI)-induced ear inflammation in BALB/c mice; format: in vivo
Method: BALB/c female mice, 8-10 weeks old, were delivered by the Institute of Laboratory Medicine, Łódź, Poland. The mice were fed a commercial, pelleted food and water ad libitum. The local ethics committee approved the study.
The test was performed according to Yamamoto, Eur. J. Pharmacol., 2006, 550, 166-172, with minor modifications. Mice were shaved on the abdomen (2×2 cm area) and after 24 h 100 μl of 3% TDI in acetone was applied through 3 consecutive days. After 14 days the reaction was elicited by application of 50 μl of 0.3% TDI on both sides of the ears. The procedure was repeated 5 times every 3 days. Ear thickness was measured using a spring caliper (Mitutoyo) 5 h and 24 h after each challenge with TDI.
Compound I-A was applied topically in the form of 0.1% ointment on both sides of the ears (total volume of 100 μl-50 μl per ear), one hour after each challenge with TDI. The reference drugs were applied in a similar way.
Superficial parotid, mandibular and accessory mandibular lymph nodes were isolated, homogenized by pressing against a stainless screen into PBS, washed 2× with PBS and re-suspended in PBS containing 0.2% Trypan blue. The total and nonviable cell numbers were counted using a light microscope and Bürker's hemocytometer.
Mice were subjected to halothane anesthesia and bled from the retro-orbital plexus, followed by the cervical dislocation. The number of blood leukocytes was determined by dilution of blood in Turk's solution and counting the cells in a hemocytometer. Blood smears were prepared on microscope glass, dried and stained with Giemsa and May-Grünwald reagents. The smears were subsequently reviewed histologically. The cell numbers were presented per 1 μl and the blood cell compositions as a percentage of a given cell type.
Mice were given 1 mg of Evans blue in 0.2 ml of 0.9% NaCl, intravenously. After 30 min mice were sacrificed, the ears were cut off, weighed and immersed in 50 μl of 1M KOH for 18 h at 37° C. The dye was extracted from the ears using 450 μl of 0.2 M phosphate acid and acetone (5:13 ratio). The samples were centrifuged at 3,000 rpm for 15 min. The optical densities (OD) of the supernatants were measured at 630 nm. The amount of Evans blue (g/ml) was determined based on a standard curve. The results were presented as the amount of Evans blue per 100 mg of wet tissue. Mice treated only with the eliciting dose of antigen served as a background control.
The auricles were fixed in 4% formalin solution for 48 h, washed for 24 h, dehydrated in an alcohol series and embedded in paraffin. The paraffin blocks were sliced in a Micron HM310 microtome into […]. The sections were stained with haematoxylin and eosin and with toluidine blue. Histological analysis was performed using a Nikon Eclipse 801light microscope. Morphometric estimations of neutrophils, macrophages, lymphocytes and mast cells in the perivascular and subepithelial connective tissue were performed on the histological slides containing cross-sections of auricles. Cells were counted on an area of 0.07 mm^2 at 400× magnification. Morphometric analysis was performed using an imagine software NIS-Elements (Nikon). For every preparation examined, 25 enumerations of neutrophils, macrophages, lymphocytes and mast cells were carried out.

[2] = tested on: CBA mice, cellular immune response to ovalbumin; assay: Delayed type hypersensitivity (DTH) test to ovalbumin; format: in vivo; conditions: two 100 μg intraperitoneal doses; FIG. 7
Method: Male CBA mice 8-12 weeks old were delivered by The Institute of Laboratory Medicine, Lodz, Poland. The mice had free access to water and pelleted food. Ovoalbumin was from Sigma and the adjuvants from Difeo.
Mice were sensitized subcutaneously with 5 μg of ovalbumin (OVA) emulsified in Freund's complete adjuvant in the tail base. After 4 days the mice were challenged with 50 μg of OVA in Freund's incomplete adjuvant in the hind footpads. Following the next 24 hours, the footpad thickness was measured using a caliper. Controls (background response mice) were not sensitized but received the challenging dose of OVA. The compound of formula I-A and the reference compound were administered to mice in two 100 μg intraperitoneal doses, 2 h before and 24 h after the sensitizing dose of antigen.

[3] = tested on: mice, carrageenan-induced foot pad edema; assay: Carrageenan-induced foot-pad edema test; format: in vivo, mouse; conditions: 4 h after carrageenan; peptides 250 μg i.p., DEX 25 μg i.p., 30 min before; FIGS. 17A-17C
Summary of the method: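 Mice received peptide 250 μg i.p. (DMSO/0.9% NaCl vehicle) 30 min before intradermal injection of 50 μl 2% carrageenan into the hind foot pad; dexamethasone 25 μg i.p. as reference. Foot-pad thickness measured by spring caliper at 2, 3 and 4 h; mean increase in mm ±SE, 5 mice/group.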

SMILES: O=C1C[C@H](Cc2ccccc2)NC(=O)[C@@H]2CCCN2C(=O)[C@@H]2CCCN2C(=O)[C@H](Cc2ccccc2)N1 [I-A] (cyclo(FPP[β3hF]))
- ear thickness, P vs Control ([1]; 5 h after challenge, Day 14, topical 1 h after each TDI challenge, FIG. 10A): 0.0005
- ear thickness, P vs Control ([1]; 5 h after challenge, Day 17, FIG. 10A): 0.0001
- ear thickness, P vs Control ([1]; 5 h after challenge, Day 20, FIG. 10A): 0.0001
- ear thickness, P vs Control ([1]; 5 h after challenge, Day 23, FIG. 10A): 0.0001
- ear thickness, P vs Control ([1]; 5 h after challenge, Day 27, FIG. 10A): 0.0001
- ear thickness, P vs Control ([1]; 24 h after challenge, Day 14, FIG. 10B): 0.0001
- ear thickness, P vs Control ([1]; 24 h after challenge, Day 17, FIG. 10B): 0.0001
- ear thickness, P vs Control ([1]; 24 h after challenge, Day 20, FIG. 10B): 0.0006
- ear thickness, P vs Control ([1]; 24 h after challenge, Day 23, FIG. 10B): 0.0001
- ear thickness, P vs Control ([1]; 24 h after challenge, Day 27, FIG. 10B): 0.0001
- permeability of capillary blood vessels in the Evans blue test, P vs Control ([1]; 24 h after the fifth challenge with TDI (day 28), FIG. 11): 0.030
- total number of cells in the draining lymph nodes, P vs Control ([1]; ANOVA of Kruskal-Wallis, FIG. 12): 0.0001
- numbers of circulating leukocytes, P vs Control ([1]; ANOVA, FIG. 13): 0.0001
- total number of cells in the draining lymph nodes ([1]; FIG. 12): reduction of the lymph node cell numbers almost to the background levels
- blood cell composition, Eosinophils (E), P vs Control ([1]; FIG. 14): 0.0001
- blood cell composition, Lymphocytes (L), P vs Control ([1]; FIG. 14): 0.0043
- blood picture (neutrophil and eosinophil contents) ([1]; FIG. 14): normalized
- auricle Ne (neutrophils), P vs Control ([1]; FIG. 15): 0.0151
- cell numbers in the auricles after treatment ([1]; area 0.07 mm^2, cell type not stated, sensitized untreated control: 20 mastocytes, 23 neutrophils, FIG. 15): 14.8 cells per the analyzed area
- effect on delayed-type hypersensitivity reaction to OVA (footpad thickness) [2]: inhibited the delayed-type hypersensitivity reaction to OVA
- suppressive action on DTH compared with reference compounds [2]: stronger than those of CLA and CsA
- foot pad edema (increase of foot pad thickness), P vs Control [3]: 0.0001
